Laboratory results published in patent US12037345B2, “Heterobicyclic compounds for inhibiting the activity of SHP2” (TAIHO PHARMACEUTICAL CO., LTD., priority 2018, dated 2024).
pIC50: −log10 of the molar value. Like-named read-outs stand apart in the source and are kept apart here.

Assays:
SHP2 = SHP2 (Homo sapiens (Human), UniProt Q06124); test: SHP2 Biochemical Assay (DiFMUP conversion, pIRS1-activated)
Experimental: SHP2 activity was monitored by measuring the conversion of the surrogate substrate 6,8-difluoromethylumbelliferyl phosphate (DiFMUP) to the fluorescent product, 6,8-difluoromethylumbelliferone (DiFMU).
SHP2 was pre-incubated with test compounds and the activating peptide pIRS1 (H2N-LN(pY)IDLDLV-(PEG)8-LST(pY)ASINFQK-amide) for 30 min, prior to addition of the 6,8-difluoromethylumbelliferyl phosphate (DiFMUP), (Thermo Fisher D6567). Final assay concentrations were 10 pM SHP2, […] pIRS1 peptide, 50 μM DiFMUP, 25 mM Bis-Tris propane, pH 7.0, 150 mM NaCl, 0.05% (v/v) Tween-20, 0.5 mM TCEP and 5% (v/v) DMSO. Rates of reaction were then measured over 30 min by monitoring fluorescence on a BMG Pherastar reader at excitation 360 nm/emission 450 nm. IC50 values were calculated in singlicate from the normalized dose-response plots using four parameter logistic curve fit. The Experiment for each compound was carried out in one time or multiple times, and the IC50 values were shown as a single value (for a compound measured in a single experiment) or an average value (for a compound measured in multiple experiments).

[1] = tested on: pERK (phospho-p44/42 ERK) in HCC827 cells; test: Cellular pERK Inhibition Assay, Method A (In-Cell Western); type: cell-based; details: Homo sapiens; for pIC50: Table 19, head prints unit as "-M", read-out: pERK (IC50) Method A; for IC50: Table 20, read-out: pERK (IC50, μM) Method A
Experimental: Cellular pERK Inhibition Assay
pERK levels were determined using the In-Cell Western assay. HCC827 cells (ATCC, Manassas, USA) were seeded into 384-well plates at a density of 1×10^4 cells/well in RPMI1640 medium supplemented with 10% FBS and incubated 24h. Compounds were diluted first in DMSO and then into serum-free medium, before being added to cells in quadruplicate to give a final concentration of 0.2% DMSO. Plates were incubated at 37° C. for the indicated time in a humidified atmosphere of 5% CO2 in air.
Following compound treatment, cells were fixed with formalin neutral buffer solution for 20 minutes at room temperature. Plates were washed three times with 0.1% Triton-X in PBS and cells were blocked for 1 hour with Odyssey blocking buffer (LI-COR, #927-40000). After shaking out blocking buffer, cells were incubated with phospho-p44/42 ERK antibody (Cell Signalling Technology, #4370, 1:200) diluted in Odyssey blocking buffer at 4° C. overnight. Plates were washed again and cells were incubated for 1 hour with Goat anti-Rabbit […] (LI-COR, #926-32211, 1:800) diluted in Odyssey blocking buffer. After washing and removing wash solution completely using a centrifuge machine, cells were scanned on the Odyssey (LI-COR), following the manufacturer's instructions. The average signal from blank wells (no cells added) was subtracted from the signals from each sample well. Levels of pERK were then expressed as percent of control, using DMSO treated samples as control. The relative IC50 values were calculated in quadruplicate from the normalized dose-response plots using four parameter logistic curve fit. The Experiment for each compound was carried out in one time or multiple times, and the IC50 values were shown as a single value (for a compound measured in a single experiment) or an average value (for a compound measured in multiple experiments).

[2] = Table 19, head prints unit as "-M"

SHP2, sequence (Q06124 whole entry): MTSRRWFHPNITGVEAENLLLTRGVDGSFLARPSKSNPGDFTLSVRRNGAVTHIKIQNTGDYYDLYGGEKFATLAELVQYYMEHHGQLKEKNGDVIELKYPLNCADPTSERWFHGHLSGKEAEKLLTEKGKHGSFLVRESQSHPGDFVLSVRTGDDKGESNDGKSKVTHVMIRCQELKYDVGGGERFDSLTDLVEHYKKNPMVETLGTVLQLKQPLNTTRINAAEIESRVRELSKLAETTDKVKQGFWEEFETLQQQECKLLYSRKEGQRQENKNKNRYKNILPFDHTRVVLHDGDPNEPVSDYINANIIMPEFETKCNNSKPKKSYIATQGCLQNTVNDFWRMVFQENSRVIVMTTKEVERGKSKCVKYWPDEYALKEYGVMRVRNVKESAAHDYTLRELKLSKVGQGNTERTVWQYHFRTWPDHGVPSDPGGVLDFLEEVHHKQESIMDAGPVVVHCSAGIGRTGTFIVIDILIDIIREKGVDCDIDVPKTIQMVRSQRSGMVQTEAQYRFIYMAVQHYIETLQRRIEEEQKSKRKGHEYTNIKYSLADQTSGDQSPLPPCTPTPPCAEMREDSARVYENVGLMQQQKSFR

| Structure (SMILES) | pIC50 (SHP2; [2]) | pIC50 [1] | pIC50 (SHP2; Table 20) | IC50 [1] |
| --- | --- | --- | --- | --- |
| CCn1nc2ccc(-c3c[nH]c4nc(N5[C@H]6CC[C@@H]5[C@H](N)C6)n(C)c(=O)c34)c(Cl)c2c1CO [Example 110, 2-((1R,2R,4S)-2-amino-7-azabicyclo[2.2.1]heptan-7-yl)-5-(4-chloro-2-ethyl-3-(hydroxymethyl)-2H-indazol-5-yl)-3-methyl-3,7-dihydro-4H-pyrrolo[2,3-d]pyrimidin-4-one] | 7.85 | 5.77 | – | – |
| Cn1c(N2C3CCCC2CNC3)nc2[nH]cc(-c3ccc4ncsc4c3Cl)c2c1=O [Example 108, 2-(3,9-diazabicyclo[3.3.1]nonan-9-yl)-5-(7-chlorobenzo[d]thiazol-6-yl)-3-methyl-3,7-dihydro-4H-pyrrolo[2,3-d]pyrimidin-4-one] | 8.40 | 7.05 | – | – |
| CN(C)c1cnc2ccc(-c3c[nH]c4nc(N5[C@H]6CC[C@@H]5[C@H](N)C6)n(C)c(=O)c34)c(Cl)c2n1 [Example 170, 2-((1R,2R,4S)-2-amino-7-azabicyclo[2.2.1]heptan-7-yl)-5-(5-chloro-3-(dimethylamino)quinoxalin-6-yl)-3-methyl-3,7-dihydro-4H-pyrrolo[2,3-d]pyrimidin-4-one] | – | – | 8.52 | 0.016 µM |
| CN[C@@H]1C[C@@H]2CC[C@H]1N2c1nc2[nH]nc(-c3ccc4nn(C)c(Cl)c4c3Cl)c2c(=O)n1C [Example 119, 3-(3,4-dichloro-2-methyl-2H-indazol-5-yl)-5-methyl-6-((1R,2R,4S)-2-(methylamino)-7-azabicyclo[2.2.1]heptan-7-yl)-1,5-dihydro-4H-pyrazolo[3,4-d]pyrimidin-4-one] | 7.77 | 6.54 | – | – |
| CCn1cc2c(Cl)c(-c3c[nH]c4nc(N5CCC(C)(CN)CC5)n(C)c(=O)c34)ccc2n1 [Example 2, 2-(4-(aminomethyl)-4-methylpiperidin-1-yl)-5-(4-chloro-2-ethyl-2H-indazol-5-yl)-3-methyl-3,7-dihydro-4H-pyrrolo[2,3-d]pyrimidin-4-one] | 7.85 | 6.89 | – | – |
| Cn1nc2ccc(-c3c[nH]c4nc(N5C6CCCC5CNC6)n(C)c(=O)c34)c(Cl)c2c1Cl [Example 99, 2-(3,9-diazabicyclo[3.3.1]nonan-9-yl)-5-(3,4-dichloro-2-methyl-2H-indazol-5-yl)-3-methyl-3,7-dihydro-4H-pyrrolo[2,3-d]pyrimidin-4-one] | 8.35 | 7.24 | – | – |
| CN(C)C(=O)CCn1cc2c(Cl)c(-c3c[nH]c4nc(N5C6CCC5CNC6)n(C)c(=O)c34)ccc2n1 [Example 88, 3-(5-(2-(3,8-diazabicyclo[3.2.1]octan-8-yl)-3-methyl-4-oxo-4,7-dihydro-3H-pyrrolo[2,3-d]pyrimidin-5-yl)-4-chloro-2H-indazol-2-yl)-N,N-dimethylpropanamide] | 7.28 | 5.35 | – | – |
| Cn1c(N2[C@@H]3CC[C@H]2C[C@@H](N)C3)nc2[nH]cc(-c3ccc4[nH]ncc4c3Cl)c2c1=O [Example 77] | 7.40 | 5.72 | – | – |
| Cn1cc2c(Cl)c(-c3c[nH]c4nc(N5C[C@@H](N)[C@@H](F)C5)n(C)c(=O)c34)ccc2n1 [Example 50, 2-((3R,4S)-3-amino-4-fluoropyrrolidin-1-yl)-5-(4-chloro-2-methyl-2H-indazol-5-yl)-3-methyl-3,7-dihydro-4H-pyrrolo[2,3-d]pyrimidin-4-one] | 6.60 | 5.33 | – | – |
| Cn1cc2c(Cl)c(-c3c[nH]c4nc(N5[C@@H]6CC[C@H]5[C@H](F)[C@@H](N)C6)n(C)c(=O)c34)ccc2n1 [Example 130, 2-((1S,2R,3S,5R)-3-amino-2-fluoro-8-azabicyclo[3.2.1]octan-8-yl)-5-(4-chloro-2-methyl-2H-indazol-5-yl)-3-methyl-3,7-dihydro-4H-pyrrolo[2,3-d]pyrimidin-4-one] | 7.20 | 6.10 | – | – |
| Cn1nc2ccc(-c3c[nH]c4nc(N5[C@H]6CC[C@@H]5[C@](C)(N)C6)n(C)c(=O)c34)c(Cl)c2c1Cl (racemic) [Example 173, rac-2-((1R,2R,4S)-2-amino-2-methyl-7-azabicyclo[2.2.1]heptan-7-yl)-5-(3,4-dichloro-2-methyl-2H-indazol-5-yl)-3-methyl-3,7-dihydro-4H-pyrrolo[2,3-d]pyrimidin-4-one] | – | – | 8.60 | 0.14 µM |
| Cn1cc2c(Cl)c(-c3c[nH]c4nc(N5CC[C@H](CN)C5)n(C)c(=O)c34)ccc2n1 [Example 60, (R)-2-(3-(aminomethyl)pyrrolidin-1-yl)-5-(4-chloro-2-methyl-2H-indazol-5-yl)-3-methyl-3,7-dihydro-4H-pyrrolo[2,3-d]pyrimidin-4-one] | 7.09 | 5.42 | – | – |
| Cn1cc2c(Cl)c(-c3n[nH]c4nc(N5C6CCCC5CNC6)n(C)c(=O)c34)ccc2n1 [Example 117, 6-(3,9-diazabicyclo[3.3.1]nonan-9-yl)-3-(4-chloro-2-methyl-2H-indazol-5-yl)-5-methyl-1,5-dihydro-4H-pyrazolo[3,4-d]pyrimidin-4-one] | 7.60 | 6.19 | – | – |
| Cn1c(N2[C@@H]3CC[C@H]2C[C@@H](N)C3)nc2[nH]cc(-c3ccc4nn(CC(C)(C)O)cc4c3Cl)c2c1=O [Example 75, 2-(endo-3-amino-8-azabicyclo[3.2.1]octan-8-yl)-5-(4-chloro-2-(2-hydroxy-2-methylpropyl)-2H-indazol-5-yl)-3-methyl-3,7-dihydro-4H-pyrrolo[2,3-d]pyrimidin-4-one] | 7.55 | 5.68 | – | – |
| Cn1cc2c(Cl)c(-c3c[nH]c4nc(N5CC6CCC5CN6)n(C)c(=O)c34)ccc2n1 (centres unmarked) [Example 32, 2-(2,5-diazabicyclo[2.2.2]octan-2-yl)-5-(4-chloro-2-methyl-2H-indazol-5-yl)-3-methyl-3,7-dihydro-4H-pyrrolo[2,3-d]pyrimidin-4-one] | 7.77 | 6.04 | – | – |
| CCn1nc2ccc(-c3n[nH]c4nc(N5[C@H]6CC[C@@H]5[C@H](N)C6)n(C)c(=O)c34)c(Cl)c2c1Cl [Example 127, 6-((1R,2R,4S)-2-amino-7-azabicyclo[2.2.1]heptan-7-yl)-3-(3,4-dichloro-2-ethyl-2H-indazol-5-yl)-5-methyl-1,5-dihydro-4H-pyrazolo[3,4-d]pyrimidin-4-one] | 8.43 | 7.20 | – | – |
| Cn1nc2ccc(-c3n[nH]c4nc(N5C6CCCC5CNC6)n(C)c(=O)c34)c(Cl)c2c1Cl [Example 116, 6-(3,9-diazabicyclo[3.3.1]nonan-9-yl)-3-(3,4-dichloro-2-methyl-2H-indazol-5-yl)-5-methyl-1,5-dihydro-4H-pyrazolo[3,4-d]pyrimidin-4-one] | 8.05 | 7.00 | – | – |
| Cn1cc2c(Cl)c(-c3c[nH]c4nc(N5C6COCC5CC(N)C6)n(C)c(=O)c34)ccc2n1 (centres unmarked) [Example 22, 2-(7-amino-3-oxa-9-azabicyclo[3.3.1]nonan-9-yl)-5-(4-chloro-2-methyl-2H-indazol-5-yl)-3-methyl-3,7-dihydro-4H-pyrrolo[2,3-d]pyrimidin-4-one] | 7.85 | 5.66 | – | – |
| Cn1cc2c(Cl)c(-c3c[nH]c4nc(N5[C@H]6CC[C@@H]5[C@@H](F)[C@H](N)C6)n(C)c(=O)c34)ccc2n1 [Example 129, 2-((1R,2S,3R,5S)-3-amino-2-fluoro-8-azabicyclo[3.2.1]octan-8-yl)-5-(4-chloro-2-methyl-2H-indazol-5-yl)-3-methyl-3,7-dihydro-4H-pyrrolo[2,3-d]pyrimidin-4-one] | 7.16 | 6.01 | – | – |
| CN[C@@H]1C[C@@H]2CC[C@H]1N2c1nc2[nH]nc(-c3ccc4nn(C)c(Cl)c4c3F)c2c(=O)n1C [Example 121, 3-(3-chloro-4-fluoro-2-methyl-2H-indazol-5-yl)-5-methyl-6-((1R,2R,4S)-2-(methylamino)-7-azabicyclo[2.2.1]heptan-7-yl)-1,5-dihydro-4H-pyrazolo[3,4-d]pyrimidin-4-one] | 7.80 | 6.68 | – | – |
| Cn1nc2ccc(-c3c[nH]c4nc(N5C[C@H]6CC[C@@H]5[C@@H]6N)n(C)c(=O)c34)c(Cl)c2c1Cl [Example 172, 2-((1R,4R,7R)-7-amino-2-azabicyclo[2.2.1]heptan-2-yl)-5-(3,4-dichloro-2-methyl-2H-indazol-5-yl)-3-methyl-3,7-dihydro-4H-pyrrolo[2,3-d]pyrimidin-4-one] | – | – | – | 0.016 µM |
